The results in this text go back to the supplement of paper PMC10307832.

Holding throughout (test): relative viability (nuclei count vs DMSO), 5 days (fraction); higher = more cells survive
Compound in the assay “GW-2580 + Trametinib”: COC1=CC=C(C=C1)COC2=C(C=C(C=C2)CC3=CN=C(N=C3N)N)OC [GW-2580] + CC(=O)Nc1cccc(-n2c(=O)n(C3CC3)c(=O)c3c(Nc4ccc(I)cc4F)n(C)c(=O)c(C)c32)c1 [Trametinib] (partner 0.02 µM)
The procedure, abridged:
(§1)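 Each reported value is a median over duplicate plates. It expresses relative viability: treated-well nuclei count divided by vehicle-well nuclei count. Lung cancer cell lines in 1536-well plates were dosed by pin tool a day after seeding, alone with one drug or with a fixed anchor-drug dose plus five library-drug doses (not always all listed) in √10 steps, and nuclei were counted after 5 days.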

Compound in the assay “Fedratinib + Vorinostat”: Cc1cnc(Nc2ccc(OCCN3CCCC3)cc2)nc1Nc1cccc(S(=O)(=O)NC(C)(C)C)c1 [Fedratinib] + O=C(CCCCCCC(=O)Nc1ccccc1)NO [Vorinostat] (partner 1 µM)
The essentials:
as §1

Compound in the assay “Fedratinib + Bortezomib”: Cc1cnc(Nc2ccc(OCCN3CCCC3)cc2)nc1Nc1cccc(S(=O)(=O)NC(C)(C)C)c1 [Fedratinib] + CC(C)C[C@H](NC(=O)[C@H](Cc1ccccc1)NC(=O)c1cnccn1)B(O)O [Bortezomib] (partner 0.002 µM)
The essentials:
as §1

Compound in the assay “GW-2580 + Alpelisib”: COC1=CC=C(C=C1)COC2=C(C=C(C=C2)CC3=CN=C(N=C3N)N)OC [GW-2580] + Cc1nc(NC(=O)N2CCC[C@H]2C(N)=O)sc1-c1ccnc(C(C)(C)C(F)(F)F)c1 [Alpelisib] (partner 2 µM)
The essentials: as §1

Compound in the assay “GW-2580 + Phenformin”: COC1=CC=C(C=C1)COC2=C(C=C(C=C2)CC3=CN=C(N=C3N)N)OC [GW-2580] + N=C(N)NC(=N)NCCc1ccccc1 [Phenformin] (partner 250 µM)
The procedure, abridged: as §1

RERF-LC-KJ: the relative viability with GW-2580 + Trametinib (first compound 0.08 µM) amounted to 0.821; with GW-2580 + Trametinib (first compound 0.8 µM) it was 0.953; with GW-2580 + Trametinib (first compound 2.53 µM), 0.769; with GW-2580 + Trametinib (first compound 8 µM) it was 0.82; in the assay with Fedratinib + Vorinostat (first compound 0.1 µM), 0.66; with Fedratinib + Vorinostat (first compound 0.3162 µM), 0.669. Besides, the relative viability is 0.573 with Fedratinib + Vorinostat (first compound 1 µM); 1.06 with Fedratinib + Bortezomib (first compound 0.1 µM); 1.16 in the assay with Fedratinib + Bortezomib (first compound 0.3162 µM); 1.05 in the assay with Fedratinib + Bortezomib (first compound 1 µM); 0.771 with GW-2580 + Alpelisib (first compound 0.08 µM); 0.803 in the assay with GW-2580 + Alpelisib (first compound 0.8 µM). The relative viability turned out to be 0.732 with GW-2580 + Alpelisib (first compound 2.53 µM); 0.793 with GW-2580 + Alpelisib (first compound 8 µM); 0.435 with GW-2580 + Phenformin (first compound 0.08 µM); 0.418 with GW-2580 + Phenformin (first compound 0.8 µM); 0.445 with GW-2580 + Phenformin (first compound 2.53 µM); 0.395 in the assay with GW-2580 + Phenformin (first compound 8 µM).

As for SK-LU-1, the relative viability with GW-2580 + Trametinib (first compound 0.08 µM) came out at 0.498; in the assay with GW-2580 + Trametinib (first compound 0.8 µM) it was 0.437; with GW-2580 + Trametinib (first compound 2.53 µM), 0.375; in the assay with GW-2580 + Trametinib (first compound 8 µM) it was 0.518; in the assay with Fedratinib + Vorinostat (first compound 0.1 µM), 0.766; in the assay with Fedratinib + Vorinostat (first compound 0.3162 µM), 0.786. In addition, the relative viability was determined as 0.614 in the assay with Fedratinib + Vorinostat (first compound 1 µM); 1.33 with Fedratinib + Bortezomib (first compound 0.1 µM); 1.23 with Fedratinib + Bortezomib (first compound 0.3162 µM); 0.967 with Fedratinib + Bortezomib (first compound 1 µM); 0.936 with GW-2580 + Alpelisib (first compound 0.08 µM); 1.09 with GW-2580 + Alpelisib (first compound 0.8 µM). Moreover, the relative viability with GW-2580 + Alpelisib (first compound 2.53 µM) was 0.85; with GW-2580 + Alpelisib (first compound 8 µM), 1.18; with GW-2580 + Phenformin (first compound 0.08 µM) it was 0.559; with GW-2580 + Phenformin (first compound 0.8 µM) it was 0.731; in the assay with GW-2580 + Phenformin (first compound 2.53 µM), 0.383; in the assay with GW-2580 + Phenformin (first compound 8 µM) it was 0.537.

Turning to SW 1573, the relative viability turned out to be 0.535 with GW-2580 + Trametinib (first compound 0.08 µM); 0.598 with GW-2580 + Trametinib (first compound 0.8 µM); 0.532 with GW-2580 + Trametinib (first compound 2.53 µM); 0.614 with GW-2580 + Trametinib (first compound 8 µM); 0.744 with Fedratinib + Vorinostat (first compound 0.1 µM); 0.701 with Fedratinib + Vorinostat (first compound 0.3162 µM). Besides, the relative viability in the assay with Fedratinib + Vorinostat (first compound 1 µM) came to 0.413; with Fedratinib + Bortezomib (first compound 0.1 µM), 1.05; with Fedratinib + Bortezomib (first compound 0.3162 µM) it was 0.911; in the assay with Fedratinib + Bortezomib (first compound 1 µM), 0.983; with GW-2580 + Alpelisib (first compound 0.08 µM), 0.841; in the assay with GW-2580 + Alpelisib (first compound 0.8 µM), 0.797. In addition, the relative viability is 0.698 with GW-2580 + Alpelisib (first compound 2.53 µM); 0.674 with GW-2580 + Alpelisib (first compound 8 µM); 0.334 with GW-2580 + Phenformin (first compound 0.08 µM); 0.383 with GW-2580 + Phenformin (first compound 0.8 µM); 0.401 with GW-2580 + Phenformin (first compound 2.53 µM); 0.4 with GW-2580 + Phenformin (first compound 8 µM).
